Earlier results, collected in EP2133696A1, “Very low concentrations of troponin I or T for assessing a cardiovascular risk with respect to the administration of anti-inflammatory drugs” (Spanuth, Eberhardt, priority 2008, dated 2009).

CS(=O)(=O)c1ccc(C2=C(c3ccccc3)C(=O)OC2)cc1 [Rofecoxib]
additional cardiovascular incidents (myocardial infarction, stroke) (25 mg rofecoxib compared with a placebo, after 18 months of follow-up): 16 per 1,000 treated patients
blood pressure levels (25 mg rofecoxib versus placebo, early post-observation phase): higher blood pressure levels
rise in the rate of serious thromboembolic incidents (APPROVE study, led to premature discontinuation, patients without any recognisable cardiovascular risk): 3.9 times
